Reference: patent publication US9957270B2, “Fused pyrimidine-based hydroxamate derivatives” (Agency for Science, Technology and Research, priority 2014, dated 2018)

Key:
PC-3 = assay: Anti-proliferative assay (cellular IC50), PC-3; details: Homo sapiens, PC-3, 72 h, read-out: In Vitro Cellular IC50 PC-3
[1] = Microsomal stability, mouse liver microsomes; details: mouse, microsomes, 0.5 h, 5 μM, pH 7.4
Description: (§1) GIBIO pooled human liver microsomes (HLM) (Cat # HMMCPL), mouse liver microsomes (MLM) (Cat # BCMCPL), and rat liver microsomes (RLM) (Cat # RTMCPL) were purchased from Life Technologies. […] Samples are incubated for 30, 45, or 60 min. Reaction is terminated with ice-cold acetonitrile 0.3% formic acid. Samples are subsequently centrifuged at 4° C. for 15 min at 20,000×g. The supernatant is analysed by LC-MS.
(§2) Compound in vitro metabolic stability was assayed using liver microsomes (LM) at 0.5 mg/mL of proteins, incubated for 30 min (mouse, MLM), 45 min (rat, RLM), 30 or 45 min (human, HLM). % of remaining parent compound was measured using LC-MS.

PI3Kα = target: T1, PI3Kα (Homo sapiens, UniProt P42336); assay: Kinase enzyme assay (ADP-Glo), PI3Kα; assay type: biochemical; details: read-out: In Vitro Enzymatic IC50 PI3Kα
T1 construct: purchased Invitrogen, or BPS Bioscience Inc., or SignalChem PV4788 / 40620 / P27-18H
T1 sequence (P42336 whole entry): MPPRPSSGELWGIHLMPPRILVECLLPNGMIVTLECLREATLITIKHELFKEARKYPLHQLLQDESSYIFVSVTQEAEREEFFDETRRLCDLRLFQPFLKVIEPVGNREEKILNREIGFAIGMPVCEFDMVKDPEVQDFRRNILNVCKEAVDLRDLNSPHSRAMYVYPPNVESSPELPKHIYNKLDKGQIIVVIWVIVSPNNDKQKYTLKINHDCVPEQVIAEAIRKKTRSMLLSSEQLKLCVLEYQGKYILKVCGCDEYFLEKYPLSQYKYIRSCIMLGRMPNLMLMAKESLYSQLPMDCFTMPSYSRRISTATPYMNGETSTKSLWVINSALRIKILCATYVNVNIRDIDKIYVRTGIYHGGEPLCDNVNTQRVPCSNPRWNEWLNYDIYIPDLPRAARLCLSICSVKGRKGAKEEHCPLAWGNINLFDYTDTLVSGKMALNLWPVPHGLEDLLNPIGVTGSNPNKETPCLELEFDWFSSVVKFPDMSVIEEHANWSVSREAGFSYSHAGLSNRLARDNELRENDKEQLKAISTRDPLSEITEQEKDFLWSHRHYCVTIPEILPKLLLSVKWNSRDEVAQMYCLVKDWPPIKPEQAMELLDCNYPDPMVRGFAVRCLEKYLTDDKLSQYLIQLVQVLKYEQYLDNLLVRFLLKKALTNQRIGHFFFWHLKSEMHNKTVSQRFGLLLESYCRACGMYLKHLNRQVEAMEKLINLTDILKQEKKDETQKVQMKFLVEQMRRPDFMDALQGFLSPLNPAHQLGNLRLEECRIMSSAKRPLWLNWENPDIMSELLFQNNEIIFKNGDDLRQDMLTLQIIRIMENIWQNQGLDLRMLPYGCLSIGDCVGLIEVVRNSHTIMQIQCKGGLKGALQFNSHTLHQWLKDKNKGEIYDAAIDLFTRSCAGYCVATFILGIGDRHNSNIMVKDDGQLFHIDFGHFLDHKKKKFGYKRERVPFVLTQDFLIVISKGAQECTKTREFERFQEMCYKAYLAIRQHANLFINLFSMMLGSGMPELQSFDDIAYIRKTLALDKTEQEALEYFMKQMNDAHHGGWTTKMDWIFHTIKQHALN
T1 sequence (P27986 whole entry partner): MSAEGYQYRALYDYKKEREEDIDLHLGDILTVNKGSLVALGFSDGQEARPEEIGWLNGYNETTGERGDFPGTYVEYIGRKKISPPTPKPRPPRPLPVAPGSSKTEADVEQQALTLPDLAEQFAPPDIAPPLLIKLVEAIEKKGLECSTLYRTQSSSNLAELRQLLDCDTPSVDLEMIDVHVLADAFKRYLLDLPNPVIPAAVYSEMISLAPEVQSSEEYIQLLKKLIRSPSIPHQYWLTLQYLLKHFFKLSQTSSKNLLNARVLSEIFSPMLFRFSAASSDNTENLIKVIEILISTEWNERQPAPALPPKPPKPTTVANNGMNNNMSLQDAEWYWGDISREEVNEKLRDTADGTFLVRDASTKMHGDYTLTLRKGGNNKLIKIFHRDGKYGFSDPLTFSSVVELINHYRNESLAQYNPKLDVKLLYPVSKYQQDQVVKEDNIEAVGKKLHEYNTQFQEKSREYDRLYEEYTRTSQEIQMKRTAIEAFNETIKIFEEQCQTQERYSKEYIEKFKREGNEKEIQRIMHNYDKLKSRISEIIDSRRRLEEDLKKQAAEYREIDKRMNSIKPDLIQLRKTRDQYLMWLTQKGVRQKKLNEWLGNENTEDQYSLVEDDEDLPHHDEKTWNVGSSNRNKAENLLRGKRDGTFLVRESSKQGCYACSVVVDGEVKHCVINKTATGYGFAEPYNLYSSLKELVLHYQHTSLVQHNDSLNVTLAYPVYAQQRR

MV-4-11 = assay: cells; details: Homo sapiens, MV4-11, 72 h, read-out: In Vitro Cellular IC50 MV-4-11
HDAC1 = HDAC1 (Homo sapiens, UniProt Q13547); assay: HDAC enzyme assay, recombinant HDAC1
Sequence of HDAC1 (Q13547 whole entry): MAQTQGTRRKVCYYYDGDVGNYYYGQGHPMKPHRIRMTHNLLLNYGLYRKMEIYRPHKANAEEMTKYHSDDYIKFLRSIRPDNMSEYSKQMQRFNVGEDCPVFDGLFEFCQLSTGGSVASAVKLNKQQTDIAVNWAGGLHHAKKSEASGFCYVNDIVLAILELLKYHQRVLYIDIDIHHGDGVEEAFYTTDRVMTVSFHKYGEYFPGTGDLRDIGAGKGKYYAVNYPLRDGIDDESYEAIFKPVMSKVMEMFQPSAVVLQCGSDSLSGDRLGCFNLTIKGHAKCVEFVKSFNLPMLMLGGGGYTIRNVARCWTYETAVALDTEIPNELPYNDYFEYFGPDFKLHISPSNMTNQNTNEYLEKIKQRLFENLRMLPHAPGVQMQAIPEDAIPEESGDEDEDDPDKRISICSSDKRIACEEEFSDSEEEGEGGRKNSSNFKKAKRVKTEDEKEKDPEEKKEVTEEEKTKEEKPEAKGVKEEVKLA

COLO 205 = assay: cells; details: Homo sapiens, COLO 205, 72 h, read-out: In Vitro Cellular IC50 COLO 205
K-562 = assay: Anti-proliferative assay (cellular IC50), K-562; details: Homo sapiens, K562, 72 h, read-out: In Vitro Cellular IC50 K-562
MCF7 = assay: Anti-proliferative assay (cellular IC50), MCF7; details: Homo sapiens, MCF7, 72 h, read-out: In Vitro Cellular IC50 MCF7
HDAC6 = target: T2, HDAC6 (Homo sapiens, UniProt Q9UBN7); assay: HDAC enzyme assay, recombinant HDAC6
T2 sequence (Q9UBN7 1-1215): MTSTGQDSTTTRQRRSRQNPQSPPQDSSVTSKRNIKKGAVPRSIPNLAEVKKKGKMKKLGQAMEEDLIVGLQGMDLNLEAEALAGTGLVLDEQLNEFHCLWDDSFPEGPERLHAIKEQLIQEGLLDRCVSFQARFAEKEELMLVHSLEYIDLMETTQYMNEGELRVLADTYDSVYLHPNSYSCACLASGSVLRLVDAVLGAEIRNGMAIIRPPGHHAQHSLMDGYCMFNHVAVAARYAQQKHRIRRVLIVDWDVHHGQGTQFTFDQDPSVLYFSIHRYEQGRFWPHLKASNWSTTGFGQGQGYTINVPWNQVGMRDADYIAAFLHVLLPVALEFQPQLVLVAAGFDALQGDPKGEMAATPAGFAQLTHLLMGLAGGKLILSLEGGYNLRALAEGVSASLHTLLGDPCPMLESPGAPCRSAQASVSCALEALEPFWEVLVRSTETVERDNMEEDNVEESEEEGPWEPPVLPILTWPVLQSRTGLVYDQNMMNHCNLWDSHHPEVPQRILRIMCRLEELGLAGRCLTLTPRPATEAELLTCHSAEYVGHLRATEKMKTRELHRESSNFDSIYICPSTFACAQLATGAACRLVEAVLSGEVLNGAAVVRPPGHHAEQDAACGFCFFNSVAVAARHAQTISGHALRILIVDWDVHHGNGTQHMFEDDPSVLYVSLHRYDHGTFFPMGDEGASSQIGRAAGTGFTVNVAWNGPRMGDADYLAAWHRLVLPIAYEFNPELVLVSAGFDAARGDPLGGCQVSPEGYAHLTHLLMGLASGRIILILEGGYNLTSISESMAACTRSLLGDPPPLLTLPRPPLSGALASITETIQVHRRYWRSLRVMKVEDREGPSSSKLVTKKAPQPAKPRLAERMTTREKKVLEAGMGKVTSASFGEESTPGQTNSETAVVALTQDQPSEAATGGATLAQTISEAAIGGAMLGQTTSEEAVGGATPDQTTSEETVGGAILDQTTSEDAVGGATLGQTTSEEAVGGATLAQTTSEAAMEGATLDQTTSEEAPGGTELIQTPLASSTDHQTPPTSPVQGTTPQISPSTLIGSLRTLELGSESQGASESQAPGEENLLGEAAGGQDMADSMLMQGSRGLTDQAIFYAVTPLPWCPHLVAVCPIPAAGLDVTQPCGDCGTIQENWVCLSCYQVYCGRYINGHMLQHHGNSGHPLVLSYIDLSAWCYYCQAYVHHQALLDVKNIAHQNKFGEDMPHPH

[2] = target: HDAC (HeLa nuclear extracts); assay: HDAC enzyme assay, HeLa nuclear extracts; details: read-out: In Vitro Enzymatic IC50 HDAC (HeLa)
HCT 116 = assay: cells; details: Homo sapiens, HCT-116, 72 h, read-out: In Vitro Cellular IC50 HCT 116
[3] = Microsomal stability, human liver microsomes; details: human, microsomes, 0.75 h, 5 μM, pH 7.4
Description: as §1, §2

MOLT-4 = assay: Anti-proliferative assay (cellular IC50), MOLT-4; details: Homo sapiens, MOLT-4, 72 h, read-out: In Vitro Cellular IC50 MOLT-4
[4] = Microsomal stability, rat liver microsomes; details: rat, microsomes, 0.75 h, 5 μM, pH 7.4
Description: as §1, §2

p110α(H1047R)/p85α = target: T3, p110α(H1047R)/p85α (Homo sapiens, UniProt P42336, H1047R); assay: Kinase enzyme assay (ADP-Glo), PI3Kα (H1047R); assay type: biochemical; details: read-out: In Vitro Enzymatic IC50 PI3Kα (H1047R)
T3 construct: purchased BPS 40641
T3 sequence (P42336 whole entry H1047R): as the sequence (P42336 whole entry) above, with H1047R counted along it
T3 sequence (P27986 whole entry partner): as the sequence (P27986 whole entry partner) above

PI3Kβ = target: T4, PI3Kβ (Homo sapiens, UniProt P42338); assay: Kinase enzyme assay (ADP-Glo), PI3Kβ; assay type: biochemical; details: read-out: In Vitro Enzymatic IC50 PI3Kβ
T4 construct: purchased SignalChem or BPS P28-10H / 40622
T4 sequence (P42338 whole entry): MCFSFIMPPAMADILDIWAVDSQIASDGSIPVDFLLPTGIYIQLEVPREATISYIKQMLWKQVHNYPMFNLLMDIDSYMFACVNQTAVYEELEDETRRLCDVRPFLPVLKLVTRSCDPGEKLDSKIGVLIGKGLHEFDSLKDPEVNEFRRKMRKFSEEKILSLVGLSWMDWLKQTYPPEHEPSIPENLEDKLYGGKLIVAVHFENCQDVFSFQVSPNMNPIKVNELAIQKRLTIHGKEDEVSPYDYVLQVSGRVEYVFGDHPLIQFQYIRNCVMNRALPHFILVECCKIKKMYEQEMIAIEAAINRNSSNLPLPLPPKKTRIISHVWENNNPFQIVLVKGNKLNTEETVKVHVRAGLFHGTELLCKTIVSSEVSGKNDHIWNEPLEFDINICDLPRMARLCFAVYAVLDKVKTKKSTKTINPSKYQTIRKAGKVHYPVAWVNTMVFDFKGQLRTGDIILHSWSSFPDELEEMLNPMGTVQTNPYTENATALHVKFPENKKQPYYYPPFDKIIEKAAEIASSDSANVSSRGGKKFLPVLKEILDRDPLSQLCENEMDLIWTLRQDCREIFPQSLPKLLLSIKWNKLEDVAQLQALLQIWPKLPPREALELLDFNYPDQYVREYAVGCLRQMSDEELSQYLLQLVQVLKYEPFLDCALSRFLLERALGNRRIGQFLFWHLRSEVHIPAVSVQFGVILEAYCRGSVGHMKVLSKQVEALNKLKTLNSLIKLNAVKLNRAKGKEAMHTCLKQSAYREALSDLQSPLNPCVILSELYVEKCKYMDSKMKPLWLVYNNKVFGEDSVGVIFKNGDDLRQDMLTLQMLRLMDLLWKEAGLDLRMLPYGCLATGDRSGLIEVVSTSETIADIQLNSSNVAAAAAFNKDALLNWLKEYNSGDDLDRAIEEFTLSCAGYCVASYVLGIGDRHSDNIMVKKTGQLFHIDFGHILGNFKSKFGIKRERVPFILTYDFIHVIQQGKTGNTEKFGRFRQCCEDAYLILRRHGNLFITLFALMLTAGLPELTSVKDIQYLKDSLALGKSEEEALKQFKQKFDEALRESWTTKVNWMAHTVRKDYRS
T4 sequence (P27986 whole entry partner): as the sequence (P27986 whole entry partner) above

p110α(E545K)/p85α = target: T5, p110α(E545K)/p85α (Homo sapiens, UniProt P42336, E545K); assay: Kinase enzyme assay (ADP-Glo), PI3Kα (E545K); assay type: biochemical; details: read-out: In Vitro Enzymatic IC50 PI3Kα (E545K)
T5 construct: purchased SignalChem P27-15H
T5 sequence (P42336 whole entry E545K): as the sequence (P42336 whole entry) above, with E545K counted along it
T5 sequence (P27986 whole entry partner): as the sequence (P27986 whole entry partner) above

| Structure (SMILES) | IC50 (PC-3) | Microsomal Stability MLM, % of remaining parent compound [1] | IC50 (PI3Kα) | IC50 (MV-4-11) | IC50 (HDAC1) | IC50 (COLO 205) | IC50 (K-562) | IC50 (MCF7) | IC50 (HDAC6) | IC50 [2] | IC50 (HCT 116) | Microsomal Stability HLM, % of remaining parent compound [3] | IC50 (MOLT-4) | Microsomal Stability RLM, % of remaining parent compound [4] | IC50 (p110α(H1047R)/p85α) | IC50 (PI3Kβ) | IC50 (p110α(E545K)/p85α) |
| --- | --- | --- | --- | --- | --- | --- | --- | --- | --- | --- | --- | --- | --- | --- | --- | --- | --- |
| CC(C)n1cnc2c(-c3cccc(OCCCC(=O)NO)c3)nc(N3CCCC3)nc21 [compound 29, N-hydroxy-4-(3-(9-isopropyl-2-(pyrrolidin-1-yl)-9H-purin-6-yl)phenoxy)butanamide] | 500 to 2000 nM | 75% | – | < 500 nM | 10 to 100 nM | 500 to 2000 nM | 500 to 2000 nM | 500 to 2000 nM | – | 100 to 1000 nM | < 500 nM | 97% | < 500 nM | 9% | – | – | – |
| CC(C)n1cnc2c(N3CCOCC3)nc(-c3ccc(OCCCCCCC(=O)NO)cc3)nc21 [compound 81, N-hydroxy-7-(4-(9-isopropyl-6-morpholino-9H-purin-2-yl)phenoxy)heptanamide] | – | – | 10 to 100 nM | – | < 10 nM | – | – | – | < 10 nM | < 10 nM | – | – | – | – | 10 to 100 nM | 100 to 1000 nM | 10 to 100 nM |
| CCn1c(CN(C)Cc2ccc(/C=C/C(=O)NO)cc2)nc2c(N3CCOCC3)nc(-c3cnc(N)nc3)nc21 [compound 89, (E)-3-(4-((((2-(2-aminopyrimidin-5-yl)-9-ethyl-6-morpholino-9H-purin-8-yl)methyl)(methyl)amino)methyl)phenyl)-N-hydroxyacrylamide] | 2000 to 10000 nM | 70% | 10 to 100 nM | – | 100 to 1000 nM | 2000 to 10000 nM | 2000 to 10000 nM | 500 to 2000 nM | – | 100 to 1000 nM | – | 87% | 500 to 2000 nM | 70% | – | – | – |

Continued, values first:

| IC50 (PC-3) | Microsomal Stability MLM, % of remaining parent compound [1] | IC50 (PI3Kα) | IC50 (MV-4-11) | IC50 (HDAC1) | IC50 (COLO 205) | IC50 (K-562) | IC50 (MCF7) | IC50 (HDAC6) | IC50 [2] | IC50 (HCT 116) | Microsomal Stability HLM, % of remaining parent compound [3] | IC50 (MOLT-4) | Microsomal Stability RLM, % of remaining parent compound [4] | IC50 (p110α(H1047R)/p85α) | IC50 (PI3Kβ) | IC50 (p110α(E545K)/p85α) | Structure (SMILES) |
| --- | --- | --- | --- | --- | --- | --- | --- | --- | --- | --- | --- | --- | --- | --- | --- | --- | --- |
| 2000 to 10000 nM | 89% | 10 to 100 nM | 500 to 2000 nM | 10 to 100 nM | 2000 to 10000 nM | 2000 to 10000 nM | 2000 to 10000 nM | 100 to 1000 nM | 100 to 1000 nM | 500 to 2000 nM | 88% | 2000 to 10000 nM | 88% | – | – | – | CC(C)n1c(NCCCCCC(=O)NO)nc2c(-c3cnc(N)nc3)nc(N3CCOCC3)nc21 [compound 6] |
| – | – | 10 to 100 nM | – | < 10 nM | – | – | – | < 10 nM | < 10 nM | – | – | – | – | 10 to 100 nM | 100 to 1000 nM | 10 to 100 nM | CC(C)n1cnc2c(-c3cnc(N)nc3)nc(NCCCCCC(=O)NO)nc21 [compound 38, 6-((6-(2-aminopyrimidin-5-yl)-9-isopropyl-9H-purin-2-yl)amino)-N-hydroxyhexanamide] |
